Assay results: patent US20020183384A1, “Methods of treating nuclear factor-kappa B mediated diseases and disorders” (priority 2001, published 2002)

Tested on: NF-κB mediated transcription
Experiment: NF-κB driven β-lactamase reporter assay in ECV-304 NF-κB.βlaZ cells (AURORA CCF2 fluorescence)
Format: cell-based, human
Conditions: Homo sapiens, ECV-304, 6 h, 10 μM compound; ECV-304 NF-κB.βlaZ cells stimulated with 10 ng/mL TNF-α or 100 pg/mL IL-1β, 6 hours at 37° C.; inhibition of maximum blue/green ratio; read-out: Percent Inhibition at 10 μM
Method in brief: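 ECV-304 cells (clone 1E8) stably carrying a β-lactamase reporter driven by 5 HIV-1 NF-κB sites, plated in M-199 with 2% FBS, compound at 10 μM final. CCF2 read at 395 nm excitation, blue 460 nm/green 530 nm emission ratio; IC50 from dose-response curve.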

Question: How did the inhibition at 10 µM turn out when CC1CCC(C(C)C)C(OC(=O)NS(=O)(=O)Oc2c(C(C)C)cccc2C(C)C)C1 (stereo not shown) [Example 138, Carbamic acid, [[2,6-bis(1-methylethyl)phenoxy]sulfonyl]-, 5-methyl-2-(1-methylethyl)cyclohexyl ester] was run?
Answer: The inhibition at 10 µM was 66.2%.

Question: For CC(C)c1cccc(C(C)C)c1OS(=O)(=O)NC(=O)Sc1c(C(C)C)cccc1C(C)C [Example 139, Carbamothioic acid, [[2,6-bis(1-methylethyl)phenoxy]sulfonyl]-, S-[2,6-bis(1-methylethyl)phenyl] ester], which inhibition at 10 µM is on record?
Answer: Its inhibition at 10 µM is 65.5%.

Question: With CCc1cccc(CC)c1COC(=O)NS(=O)(=O)Oc1c(C(C)C)cccc1C(C)C [Example 140, Carbamic acid, [[2,6-bis(1-methylethyl)phenoxy]sulfonyl]-, (2,6-diethylphenyl)methyl ester] as the compound, how does the inhibition at 10 µM read?
Answer: The inhibition at 10 µM was 38.7%.

Question: CC(C)c1cccc(C(C)C)c1OS(=O)(=O)NC(=O)OC1[C@H](C(C)C)CCC[C@H]1C(C)C [Example 142, Carbamic acid, [[2,6-bis(1-methylethyl)phenoxy]sulfonyl]-, (2S,6S)-2,6-bis(1-methylethyl)cyclohexyl ester] was tested. Which inhibition at 10 µM did it give?
Answer: The inhibition at 10 µM was 53.9%.

Question: How did the inhibition at 10 µM turn out when CC(C)c1cccc(C(C)C)c1OS(=O)(=O)NC(=O)C1CC1c1ccccc1 (stereo not shown) [Example 144, (2-Phenyl-cyclopropanecarbonyl)-sulfamic acid 2,6-diisopropyl-phenyl ester] was run?
Answer: The inhibition at 10 µM was 16.2%.

Question: Which inhibition at 10 µM does the source give for COc1ccc(OC)c(CC(=O)NS(=O)(=O)Oc2c(C(C)C)cccc2C(C)C)c1 [Example 145, [(2,5-Dimethoxy-phenyl)-acetyl]-sulfamic acid 2,6-diisopropyl-phenyl ester] here?
Answer: Its inhibition at 10 µM is less than 10%.

Question: With Cc1cc(C)c(CC(=O)NS(=O)(=O)Oc2c(C(C)C)cccc2C(C)C)c(C)c1 [Example 146, [(2,4,6-Trimethyl-phenyl)-acetyl]-sulfamic acid 2,6-diisopropyl-phenyl ester] as the compound, how does the inhibition at 10 µM read?
Answer: The inhibition at 10 µM was 28.3%.

Question: With COc1cc(OC)c(CC(=O)NS(=O)(=O)Oc2c(C(C)C)cccc2C(C)C)c(OC)c1 [Example 147, [(2,4,6-Trimethoxy-phenyl)-acetyl]-sulfamic acid 2,6-diisopropyl-phenyl ester] as the compound, how does the inhibition at 10 µM read?
Answer: Its inhibition at 10 µM is less than 10%.

Question: For CC(C)c1cccc(C(C)C)c1OS(=O)(=O)NC(=O)Cc1cccs1 [Example 148, (Thiophen-2-yl-acetyl)-sulfamic acid 2,6-diisopropyl-phenyl ester], which inhibition at 10 µM is on record?
Answer: The inhibition at 10 µM was less than 10%.

Question: CC(C)c1cccc(C(C)C)c1OS(=O)(=O)NC(=O)Cc1ccsc1 [Example 149, (Thiophen-3-yl-acetyl)-sulfamic acid 2,6-diisopropyl-phenyl ester] was tested. Which inhibition at 10 µM did it give?
Answer: The inhibition at 10 µM was less than 10%.

Question: CC(=O)OC(C(=O)NS(=O)(=O)Oc1c(C(C)C)cccc1C(C)C)c1c(C(C)C)cc(C(C)C)cc1C(C)C (stereo not shown) [Example 154, Acetic acid 2-(2,6-diisopropyl-phenoxysulfonylamino)-2-oxo-1-(2,4,6-triisopropyl-phenyl)-ethyl ester] was tested. Which inhibition at 10 µM did it give?
Answer: Its inhibition at 10 µM is 77.7%.

Question: Which inhibition at 10 µM does the source give for CC(C)c1cccc(C(C)C)c1OS(=O)(=O)NC(=O)CC1CCCCC1 [Example 155, Cyclohexylacetyl-sulfamic acid 2,6-diisopropyl-phenyl ester] here?
Answer: Its inhibition at 10 µM is less than 10%.

Question: How did the inhibition at 10 µM turn out when COc1ccccc1CC(=O)NS(=O)(=O)Oc1c(C(C)C)cccc1C(C)C [Example 156, [(2-Methoxy-phenyl)-acetyl]-sulfamic acid 2,6-diisopropyl-phenyl ester] was run?
Answer: The inhibition at 10 µM was less than 10%.

Question: Which inhibition at 10 µM does the source give for CC(C)c1cccc(C(C)C)c1OS(=O)(=O)NC(=O)C(=O)c1ccccc1 [Example 157, (Oxo-phenyl-acetyl)-sulfamic acid 2,6-diisopropyl-phenyl ester] here?
Answer: Its inhibition at 10 µM is less than 10%.

Question: Which inhibition at 10 µM does the source give for CC(C)c1cccc(C(C)C)c1OS(=O)(=O)NC(=O)Cc1ccccc1C(F)(F)F [Example 158, [(2-Trifluoromethyl-phenyl)-acetyl]-sulfamic acid 2,6-diisopropyl-phenyl ester] here?
Answer: The inhibition at 10 µM was 25.9%.

Question: For CC(C)c1cccc(C(C)C)c1OS(=O)(=O)NC(=O)C(C)c1ccccc1 (stereo not shown) [Example 159, (2-Phenyl-propionyl)-sulfamic acid 2,6-diisopropyl-phenyl ester], which inhibition at 10 µM is on record?
Answer: The inhibition at 10 µM was 10.1%.

Question: For CC(C)c1cccc(C(C)C)c1OS(=O)(=O)NC(=O)C(c1ccccc1)c1ccccc1 [Example 160, Diphenylacetyl-sulfamic acid 2,6-diisopropyl-phenyl ester], which inhibition at 10 µM is on record?
Answer: Its inhibition at 10 µM is 34.2%.

Question: CC(C)c1cccc(C(C)C)c1OS(=O)(=O)NC(=O)C(c1ccccc1)C1CCCC1 (stereo not shown) [Example 161, (Cyclopentyl-phenyl-acetyl)-sulfamic acid 2,6-diisopropyl-phenyl ester] was tested. Which inhibition at 10 µM did it give?
Answer: The inhibition at 10 µM was 51.5%.

Question: CC(C)c1cc(C(C)C)c(C(O)C(=O)NS(=O)(=O)Oc2c(C(C)C)cccc2C(C)C)c(C(C)C)c1 (stereo not shown) [Example 162, [Hydroxy-(2,4,6-triisopropyl-phenyl)-acetyl]-sulfamic acid 2,6-diisopropyl-phenyl ester] was tested. Which inhibition at 10 µM did it give?
Answer: Its inhibition at 10 µM is 75.3%.

Question: Which inhibition at 10 µM does the source give for CC(C)c1cccc(C(C)C)c1OS(=O)(=O)NC(=O)C(c1ccccc1)(c1ccccc1)c1ccccc1 [Example 163, Triphenylacetyl-sulfamic acid 2,6-diisopropyl-phenyl ester] here?
Answer: Its inhibition at 10 µM is 62.4%.

Question: With CC(C)c1cccc(C(C)C)c1OS(=O)(=O)NC(=O)OC1[C@@H](C(C)C)CCC[C@H]1C(C)C (stereo partly drawn) [Example 164, Carbamic acid, [[2,6-bis(1-methylethyl)phenoxy]sulfonyl]-, (2R,6S)-2,6-bis(1-methylethyl)cyclohexyl ester] as the compound, how does the inhibition at 10 µM read?
Answer: The inhibition at 10 µM was 55.2%.

Same assay, conditions: Homo sapiens; 10 μM compound; ECV-304 NF-κB.βlaZ cells stimulated with 10 ng/mL TNF-α or 100 pg/mL IL-1β, 6 hours at 37° C.; inhibition of maximum blue/green ratio; read-out: Percent Inhibition at 10 μM

Question: Which inhibition at 10 µM does the source give for Cc1cccc(C(C)(C)C)c1OC(=O)NS(=O)(=O)Oc1c(C(C)C)cccc1C(C)C [Example 137, Carbamic acid, [[2,6-bis(1-methylethyl)phenoxy]sulfonyl]-, 2-(1,1-dimethylethyl)-6-methylphenyl ester] here?
Answer: Its inhibition at 10 µM is less than 10%.

Question: How did the inhibition at 10 µM turn out when CC(C)c1cccc(C(C)C)c1OC(=O)NS(=O)(=O)NC(=O)Oc1c(C(C)C)cccc1C(C)C [Example 141, Carbamic acid, sulfonylbis-, bis[2,6-bis(1-methylethyl)phenyl] ester] was run?
Answer: The inhibition at 10 µM was less than 10%.

Question: How did the inhibition at 10 µM turn out when CC(C)c1cc(C(C)(C)C)cc(C(C)C)c1OC(=O)NS(=O)(=O)Oc1c(C(C)C)cccc1C(C)C [Example 143, Carbamic acid, [[2,6-bis(1-methylethyl)phenoxy]sulfonyl]-, 4-(1,1-dimethylethyl)-2,6-bis(1-methylethyl)phenyl ester] was run?
Answer: Its inhibition at 10 µM is 65.8%.

Question: CC(C)c1cccc(C(C)C)c1OS(=O)(=O)NC(=O)Oc1ccc(F)cc1 [Example 150, Carbamic acid, [[2,6-bis(1-methylethyl)phenoxy]sulfonyl]-, 4-fluorophenyl ester] was tested. Which inhibition at 10 µM did it give?
Answer: The inhibition at 10 µM was less than 10%.

Question: With CC(C)c1cccc(C(C)C)c1OS(=O)(=O)NC(=O)Oc1ccc(F)cc1F [Example 151, Carbamic acid, [[2,6-bis(1-methylethyl)phenoxy]sulfonyl]-, 2,4-difluorophenyl ester] as the compound, how does the inhibition at 10 µM read?
Answer: Its inhibition at 10 µM is less than 10%.

Question: With CC(C)c1cccc(C(C)C)c1OS(=O)(=O)NC(=O)Oc1c(F)c(F)c(F)c(F)c1F [Example 152, Carbamic acid, [[2,6-bis(1-methylethyl)phenoxy]sulfonyl]-, pentafluorophenyl ester] as the compound, how does the inhibition at 10 µM read?
Answer: The inhibition at 10 µM was less than 10%.

Question: For CC(C)c1cccc(C(C)C)c1OS(=O)(=O)NC(=O)Oc1c(F)cccc1F [Example 153, Carbamic acid, [[2,6-bis(1-methylethyl)phenoxy]sulfonyl]-, 2,6-difluorophenyl ester], which inhibition at 10 µM is on record?
Answer: The inhibition at 10 µM was less than 10%.
